From ChEMBL document CHEMBL1201862, “PubChem BioAssay data set” (2004)
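1) Cells in 96-well plates. 2) Compound, 48 h, 5 concentrations. 3) Linear interpolation between surrounding doses. 4) Unreached endpoint = highest concentration. The concentration for 50% growth inhibition is given as GI50.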 Activity calls are given as the source filed them. No stated cut-off is given here; in the data, active = GI50 up to about 1.1 µM and inactive = higher.

Experiments:
Assay in all cases: growth of human tumour cells (NCI), 48 h
[1] = tested on: 786-0
[2] = tested on: A498
[3] = tested on: A549
[4] = tested on: ACHN
[5] = tested on: BT-549
[6] = tested on: CAKI-1
[7] = tested on: CCRF-CEM
[8] = tested on: COLO 205
[9] = tested on: DU-145
[10] = tested on: EKVX
[11] = tested on: HCC 2998
[12] = tested on: HCT-116
[13] = tested on: HCT-15
[14] = tested on: HL-60
[15] = tested on: HOP-62
[16] = tested on: HOP-92
[17] = tested on: HT-29
[18] = tested on: Hs-578T
[19] = tested on: IGROV-1
[20] = tested on: K562
[21] = tested on: KM12
[22] = tested on: LOX IMVI
[23] = tested on: M14
[24] = tested on: MCF7
[25] = tested on: MDA-MB-231
[26] = tested on: MDA-MB-435
[27] = tested on: MDA-N
[28] = tested on: MOLT-4
[29] = tested on: Malme-3M
[30] = tested on: NCI-H226
[31] = tested on: NCI-H23
[32] = tested on: NCI-H460
[33] = tested on: NCI-H522
[34] = tested on: NCI/ADR-RES
[35] = tested on: OVCAR-3
[36] = tested on: OVCAR-4
[37] = tested on: OVCAR-5
[38] = tested on: OVCAR-8
[39] = tested on: PC-3
[40] = tested on: RPMI-8226
[41] = tested on: RXF 393
[42] = tested on: SF-268
[43] = tested on: SF-295
[44] = tested on: SF-539
[45] = tested on: SK-MEL-28
[46] = tested on: SK-MEL-2
[47] = tested on: SK-MEL-5
[48] = tested on: SK-OV-3
[49] = tested on: SN12C
[50] = tested on: SNB-19
[51] = tested on: SNB-75
[52] = tested on: SR
[53] = tested on: SW-620
[54] = tested on: T47D
[55] = tested on: TK-10
[56] = tested on: U-251
[57] = tested on: UACC-257
[58] = tested on: UACC-62
[59] = tested on: UO-31
[60] = tested on: DLD-1
[61] = tested on: DMS-114
[62] = tested on: M19-MEL
[63] = tested on: SNB-78

CCCCCC(O)C1C(=O)OC(C)C(O)/C=C/C=C/C=C/C=C\C=C(\C)C(O)CC(O)CC(O)CC(O)CC(O)CC(O)CC1O (stereo unspecified)
GI50 [1]: > 50 µM (inactive)
GI50 [2]: > 50 µM (inactive)
GI50 [3]: > 50 µM (inactive)
GI50 [4]: > 50 µM (inactive)
GI50 [5]: > 50 µM (inactive)
GI50 [6]: > 50 µM (inactive)
GI50 [7]: > 50 µM (inactive)
GI50 [8]: > 50 µM (inactive)
GI50 [9]: > 50 µM (inactive)
GI50 [10]: > 50 µM (inactive)
GI50 [11]: > 50 µM (inactive)
GI50 [12]: > 50 µM (inactive)
GI50 [13]: > 50 µM
GI50 [14]: > 50 µM (inactive)
GI50 [15]: > 50 µM (inactive)
GI50 [16]: > 50 µM (inactive)
GI50 [17]: > 50 µM (inactive)
GI50 [18]: > 50 µM (inactive)
GI50 [19]: > 50 µM (inactive)
GI50 [20]: > 50 µM (inactive)
GI50 [21]: > 50 µM (inactive)
GI50 [22]: > 50 µM (inactive)
GI50 [23]: > 50 µM (inactive)
GI50 [24]: > 50 µM (inactive)
GI50 [25]: > 50 µM (inactive)
GI50 [26]: > 50 µM (inactive)
GI50 [27]: > 50 µM (inactive)
GI50 [28]: > 50 µM (inactive)
GI50 [29]: > 50 µM (inactive)
GI50 [30]: > 50 µM (inactive)
GI50 [31]: > 50 µM (inactive)
GI50 [32]: > 50 µM (inactive)
GI50 [33]: > 50 µM (inactive)
GI50 [34]: > 50 µM (inactive)
GI50 [35]: > 50 µM (inactive)
GI50 [36]: 11.1 µM (inactive)
GI50 [37]: > 50 µM (inactive)
GI50 [38]: > 50 µM (inactive)
GI50 [39]: > 50 µM (inactive)
GI50 [40]: > 50 µM (inactive)
GI50 [41]: > 50 µM (inactive)
GI50 [42]: > 50 µM (inactive)
GI50 [43]: > 50 µM (inactive)
GI50 [44]: > 50 µM (inactive)
GI50 [45]: > 50 µM (inactive)
GI50 [46]: > 50 µM (inactive)
GI50 [47]: > 50 µM (inactive)
GI50 [48]: > 50 µM (inactive)
GI50 [49]: > 50 µM (inactive)
GI50 [50]: > 50 µM (inactive)
GI50 [51]: > 50 µM (inactive)
GI50 [52]: > 50 µM (inactive)
GI50 [53]: > 50 µM (inactive)
GI50 [54]: > 50 µM (inactive)
GI50 [55]: > 50 µM (inactive)
GI50 [56]: > 50 µM (inactive)
GI50 [57]: 34.6 µM (inactive)
GI50 [58]: > 50 µM (inactive)
GI50 [59]: > 50 µM (inactive)

COc1cc(Cn2c3ccccc3c3cc(C)cc(OC)c32)cc2c1[nH]c1ccccc12
GI50 [1]: > 25 µM (inactive)
GI50 [8]: > 25 µM (inactive)
GI50 [60]: > 25 µM (inactive)
GI50 [61]: 20 µM (inactive)
GI50 [11]: > 25 µM (inactive)
GI50 [12]: > 25 µM (inactive)
GI50 [19]: > 25 µM (inactive)
GI50 [62]: > 25 µM (inactive)
GI50 [29]: > 25 µM (inactive)
GI50 [35]: 10.2 µM (inactive)
GI50 [37]: > 25 µM (inactive)
GI50 [38]: 10.5 µM (inactive)
GI50 [40]: > 25 µM (inactive)
GI50 [45]: > 25 µM (inactive)
GI50 [46]: > 25 µM (inactive)
GI50 [47]: > 25 µM (inactive)
GI50 [48]: > 25 µM (inactive)
GI50 [49]: > 25 µM (inactive)
GI50 [50]: > 25 µM (inactive)
GI50 [63]: 23.1 µM (inactive)
GI50 [55]: > 25 µM (inactive)
GI50 [56]: > 25 µM (inactive)
GI50 [59]: > 25 µM (inactive)

O=[N+]([O-])c1nccn1CC(O)CN1CCCCC1 (stereo unspecified) [PIMONIDAZOLE]
GI50 [1]: > 100 µM (inactive)
GI50 [2]: > 100 µM (inactive)
GI50 [3]: > 100 µM (inactive)
GI50 [4]: > 100 µM (inactive)
GI50 [5]: > 100 µM (inactive)
GI50 [6]: > 100 µM (inactive)
GI50 [7]: > 100 µM (inactive)
GI50 [8]: > 100 µM (inactive)
GI50 [9]: > 100 µM (inactive)
GI50 [10]: > 100 µM (inactive)
GI50 [11]: > 100 µM (inactive)
GI50 [12]: > 100 µM (inactive)
GI50 [13]: > 100 µM
GI50 [14]: > 100 µM (inactive)
GI50 [15]: > 100 µM (inactive)
GI50 [16]: > 100 µM (inactive)
GI50 [17]: > 100 µM (inactive)
GI50 [18]: > 100 µM (inactive)
GI50 [19]: > 100 µM (inactive)
GI50 [20]: > 100 µM (inactive)
GI50 [21]: > 100 µM (inactive)
GI50 [22]: > 100 µM (inactive)
GI50 [23]: > 100 µM (inactive)
GI50 [24]: > 100 µM (inactive)
GI50 [25]: > 100 µM (inactive)
GI50 [26]: > 100 µM (inactive)
GI50 [27]: > 100 µM (inactive)
GI50 [28]: > 100 µM (inactive)
GI50 [29]: > 100 µM (inactive)
GI50 [30]: > 100 µM (inactive)
GI50 [31]: > 100 µM (inactive)
GI50 [32]: > 100 µM (inactive)
GI50 [33]: > 100 µM (inactive)
GI50 [34]: > 100 µM (inactive)
GI50 [35]: > 100 µM (inactive)
GI50 [36]: > 100 µM (inactive)
GI50 [37]: > 100 µM (inactive)
GI50 [38]: > 100 µM (inactive)
GI50 [39]: > 100 µM (inactive)
GI50 [40]: > 100 µM (inactive)
GI50 [41]: > 100 µM (inactive)
GI50 [42]: > 100 µM (inactive)
GI50 [43]: > 100 µM (inactive)
GI50 [44]: > 100 µM (inactive)
GI50 [45]: > 100 µM (inactive)
GI50 [46]: > 100 µM (inactive)
GI50 [47]: > 100 µM (inactive)
GI50 [48]: > 100 µM (inactive)
GI50 [49]: > 100 µM (inactive)
GI50 [50]: > 100 µM (inactive)
GI50 [51]: > 100 µM (inactive)
GI50 [52]: > 100 µM (inactive)
GI50 [53]: > 100 µM (inactive)
GI50 [54]: > 100 µM (inactive)
GI50 [55]: > 100 µM (inactive)
GI50 [56]: > 100 µM (inactive)
GI50 [57]: > 100 µM (inactive)
GI50 [58]: > 100 µM (inactive)
GI50 [59]: > 100 µM (inactive)
